# Test results from patent publication US11439642B2 (Adverio Pharma GmbH, priority 2010, dated 2022).
# Molecular target: T1, recombinant guanylate cyclase reporter cell line (Rattus norvegicus, UniProt P19686+P20595)
# T1 construct: expressed in transfected cells
# T1 sequence (P20595 1-619): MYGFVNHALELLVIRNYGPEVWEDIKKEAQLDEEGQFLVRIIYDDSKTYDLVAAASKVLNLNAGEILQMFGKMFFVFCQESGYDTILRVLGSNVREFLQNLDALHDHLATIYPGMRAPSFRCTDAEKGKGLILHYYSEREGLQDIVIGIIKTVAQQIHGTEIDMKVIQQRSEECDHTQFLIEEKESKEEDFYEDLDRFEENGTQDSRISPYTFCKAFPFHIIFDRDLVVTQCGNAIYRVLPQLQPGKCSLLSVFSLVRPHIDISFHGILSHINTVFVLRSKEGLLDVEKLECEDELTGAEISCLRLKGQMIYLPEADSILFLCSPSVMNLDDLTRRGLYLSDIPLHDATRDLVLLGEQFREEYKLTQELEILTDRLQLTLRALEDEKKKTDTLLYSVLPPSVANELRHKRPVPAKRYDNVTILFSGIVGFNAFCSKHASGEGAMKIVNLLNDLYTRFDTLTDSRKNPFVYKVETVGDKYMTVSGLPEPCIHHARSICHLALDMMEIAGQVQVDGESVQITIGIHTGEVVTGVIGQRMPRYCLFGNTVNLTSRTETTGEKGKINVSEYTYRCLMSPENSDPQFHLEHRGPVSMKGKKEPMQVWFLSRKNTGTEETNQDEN
# T1 sequence (P19686 1-690): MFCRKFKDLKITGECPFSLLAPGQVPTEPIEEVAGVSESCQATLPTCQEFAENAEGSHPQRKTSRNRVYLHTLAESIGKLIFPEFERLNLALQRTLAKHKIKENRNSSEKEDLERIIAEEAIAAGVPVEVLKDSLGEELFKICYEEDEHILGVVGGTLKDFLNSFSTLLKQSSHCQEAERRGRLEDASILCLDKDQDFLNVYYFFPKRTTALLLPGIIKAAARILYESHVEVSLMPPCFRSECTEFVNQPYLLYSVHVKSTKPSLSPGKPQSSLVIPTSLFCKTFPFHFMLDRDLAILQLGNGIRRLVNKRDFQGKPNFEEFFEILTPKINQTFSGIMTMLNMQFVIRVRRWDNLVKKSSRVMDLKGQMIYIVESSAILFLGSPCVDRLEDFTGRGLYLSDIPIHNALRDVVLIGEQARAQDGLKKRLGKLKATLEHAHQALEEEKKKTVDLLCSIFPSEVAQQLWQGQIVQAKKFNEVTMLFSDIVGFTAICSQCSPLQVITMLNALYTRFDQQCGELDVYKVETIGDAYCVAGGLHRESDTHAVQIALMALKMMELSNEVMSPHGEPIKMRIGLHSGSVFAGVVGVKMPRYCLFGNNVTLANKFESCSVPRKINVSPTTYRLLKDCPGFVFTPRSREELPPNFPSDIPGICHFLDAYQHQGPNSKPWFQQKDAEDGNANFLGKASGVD
# Experiment: Effect on a recombinant guanylate cyclase reporter cell line
# Type: cell-based
# Description: The cellular activity of the compounds according to the invention is determined using a recombinant guanylate cyclase reporter cell line, as described in F. Wunder et al., Anal. Biochem. 339, 104-112 (2005).
row,MEC (minimum effective concentration) [µM],Structure (SMILES)
1,0.03,"COC(=O)N(CC(F)(F)F)c1c(N)nc(-c2nn(Cc3ccccc3F)c3ncc(F)cc23)nc1N [Example 3, Methyl {4,6-diamino-2-[5-fluoro-1-(2-fluorobenzyl)-1H-pyrazolo[3,4-b]pyridin-3-yl]pyrimidin-5-yl}(2,2,2-trifluoroethyl)carbamate]"
2,0.3,"COC(=O)Nc1c(N)nc(-c2nn(Cc3ccccc3F)c3ncc(F)cc23)nc1N [Example 1, Methyl {4,6-diamino-2-[5-fluoro-1-(2-fluorobenzyl)-1H-pyrazolo[3,4-b]pyridin-3-yl]pyrimidin-5-yl}carbamate]"
3,0.1,COC(=O)N(C)c1c(N)nc(-c2nn(Cc3ccccc3F)c3ncc(F)cc23)nc1N [Example 2]
